# Experimental data reported in publication PMC11383987 (bioRxiv, 2024).
# Biological target: T1, Arabidopsis thaliana PIN8 (Arabidopsis thaliana, UniProt Q9LFP6)
# T1 sequence (Q9LFP6 1-367): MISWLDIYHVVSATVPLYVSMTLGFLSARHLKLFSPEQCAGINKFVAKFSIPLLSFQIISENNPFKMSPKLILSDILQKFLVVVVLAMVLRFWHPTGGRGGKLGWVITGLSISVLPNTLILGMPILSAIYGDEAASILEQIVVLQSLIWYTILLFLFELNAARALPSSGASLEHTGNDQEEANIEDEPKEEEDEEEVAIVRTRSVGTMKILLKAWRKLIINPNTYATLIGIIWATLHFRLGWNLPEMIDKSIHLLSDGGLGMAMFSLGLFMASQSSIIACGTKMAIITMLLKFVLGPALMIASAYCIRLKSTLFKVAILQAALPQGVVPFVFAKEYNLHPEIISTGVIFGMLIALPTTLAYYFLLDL
# Assay: SSM electrophysiology peak current response, wild-type PIN8 proteoliposomes
# Type: biochemical
compound,measurement,setting,value
"O=C(O)c1ccccc1C(=O)Nc1cccc2ccccc12 [NPA, 1-N-naphthylphthalamic acid]","effect of NPA on current response to 2,4-D","100 μM 2,4D in absence or presence of 20 µM NPA",inhibited
same,peak width of SSM current response at various lipid-to-protein ratios (LPR),"LPR10 vs LPR50, variation is consistent with transport",does not change
